Data set [1] relates to PDE IV isolated and purified from guinea pig eosinophils. As to the kind of experiment: PDE IV inhibitory activity test. It is filed as biochemical. The conditions noted are these: hydrolysis of cAMP by enzyme preparation from guinea pig eosinophils; read-out: 50% Inhibitory Concentration. The protocol:
The PDE IV inhibitory activity test was carried out according to a method using cosinophils prepared from the abdomen of guinea pig (Souness, J. E. et al., Biochem. Pharmacol. vol. 42, p. 937 (1991)). That is, a homogenizing buffer (10 ml, components: 20 mM Tris-HCl buffer (pH 7.5); 2 mM magnesium chloride; 1 mM dithiothreitol, 5 mM ethylenediamine tetraacetate disodium; 250 mM sucrose; 20 μM p-tosyl-l-lysine-chloromethylketone; 10 μg/ml Leupeptine) was added to 5×10^7 cells, and the mixture was centrifuged. To the residue was added a solubilizing buffer (10 ml, sodium deoxycholate (final concentration: 0.5%) and sodium chloride (final concentration: 100 mM) were added to the above homogenizing buffer), and the mixture was centrifuged again. The supernatant was subjected to ultrafiltration using Molcut-II (manufactured by Japan Millipore Limited), and the fraction on the membrane was collected by adding a homogenizing buffer (10 ml) to give an enzyme preparation. Inhibitory activity against the enzyme was determined by comparing the hydrolysis rates of a substrate, cAMP (manufactured by Nacalai Tesque Inc.), by the above enzyme fraction between in the test compound-treated group and the vehicle group.

The test system of data set [2] is bronchoconstriction of guinea pig induced by the antigen. As to the kind of experiment: Inhibitory effect on antigen-induced bronchoconstriction (Konzett-Roessler method). Format: in vivo. The following applies: sensitized guinea pigs; for inhibition in vivo at 10 mg/kg / inhibition in vivo at 3 mg/kg / inhibition in vivo at 30 mg/kg: Cavia porcellus, po, read-out: Inhibitory Rate; for inhibition in vivo at 3 mg/kg: 3 mg/kg orally; for inhibition in vivo at 30 mg/kg: 30 mg/kg orally. The protocol:
Hartley male guinea pigs were actively sensitized by intraperitoneally administering an ovalbumin (manufacture by Sigma). Four weeks thereafter, the animals were anesthetized with Nembutal (50 mg/kg, i.p., manufactured by Dainabot Co., Ltd.), and a cannual was inserted at the airway, and the bronchoconstriction response of the animals under artificial respiration was observed. The response of the airway was measured by Konzett-Roessler method (Naunyn-Schmiedebergs, Aech. Exp. Pathol. Pharmacol., vol. 195, p. 71 (1940)). A test compound (the compounds of Examples of the present invention as listed in Table 3) was orally administered to the animals one hour prior to the administration of the antigen (i.e., ovalbumin, 0.05%/physiological saline solution, i.v.). Only the compound of Example 31 was orally administered 2 hours prior to the administration of the antigene. The inhibitory rate (%) caused by the test compound was calculated by comparing the bronchoconstriction response of the test compound-treated group with that of the control group to which only a solvent was administered.

The nature of the next data set: acute toxicity test. Format: in vivo. The following applies: dose of 2000 mg/kg. The text has this:
Besides, the present compounds (I) of the present invention are low toxic.

The mark [3] stands for this setting: 1 h, 10 mg/kg orally, one hour prior to antigen (ovalbumin i.v.).
The mark [4] stands for this setting: 2 hours prior to antigen (ovalbumin i.v.).
[5] abbreviates: 1 h, one hour prior to antigen (ovalbumin i.v.).

Each structure is given as a SMILES string. Counter-ions that a name gives are not always drawn. Like-named read-outs stand apart in the source and are kept apart here.

On to `Brc1cccc(Sc2ncccc2OCCCc2cccnc2)c1` [Example 3, 2-(3-bromophenylthio)-3-[3-(pyridin-3-yl)propoxy]-pyridine], for which the IC50 in data set [1] was 35.6 nM. The inhibition in vivo at 10 mg/kg in data set [2] (setting [3]) stood at 59.9%. As for `Oc1cnccc1CCCOc1cccnc1Oc1ccccc1` [Example 30, 2-phenoxy-3-[3-(3-hydroxypyridin-4-yl)propoxy]pyridine], the IC50 in data set [1] worked out at 11 nM. In addition, the inhibition in vivo at 10 mg/kg in data set [2] (setting [3]) amounted to 46.5%. Turning to `CC(=O)Oc1cnccc1CCCOc1cccnc1Oc1cccc(Cl)c1` [Example 54, 2-(3-chlorophenoxy)-3-[3-(3-acetoxypyridin-4-yl)propoxy]-pyridine.monofumarate], in data set [1], the IC50 was determined as 63.3 nM. For the same compound, the inhibition in vivo at 10 mg/kg in data set [2] (setting [3]) came out at 33%. Take `Nc1cncc(O)c1CCCOc1cccnc1Oc1cccc(Cl)c1` [Example 69, 2-(3-chlorophenoxy)-3-[3-(3-amino-5-hydroxypyridin-4-yl)propoxy]pyridine.1.0 fumarate]: the IC50 in data set [1] came out at 41.2 nM. For `Brc1cccc(Sc2ncccc2OCCCc2ccncc2)c1` [Example 7, 2-(3-bromophenylthio)-3-[3-(pyridin-4-yl)propoxy]pyridine], the melting point (as a rule, the temperature, or range, at which the solid turns liquid) fell in the range of 89 to 90 °C. Besides, the IC50 in data set [1] was found to be 33.7 nM. Besides, the inhibition in vivo at 10 mg/kg in data set [2] (setting [3]) came out at 77.2%. Regarding `Oc1cncc(CCCOc2cccnc2Oc2cccc(Cl)c2)c1` [Example 65, 2-(3-chlorophenoxy)-3-[3-(5-hydroxypyridin-3-yl)-propoxy]pyridine], the IC50 in data set [1] amounted to 85.6 nM. As to `Fc1cccc(Oc2ncccc2OCCCc2ccncc2)c1` [Example 39, 2-(3-fluorophenoxy)-3-[3-(pyridin-4-yl)propoxy]pyridine], the melting point was 117 to 118 °C. Moreover, in data set [1], the IC50 stood at 20.5 nM. In data set [2] (setting [3]), the inhibition in vivo at 10 mg/kg came out at 66.3%. `CS(=O)(=O)Nc1cnccc1CCCOc1cccnc1Oc1cccc(Cl)c1` [Example 70, 2-(3-chlorophenoxy)-3-[3-(3-methylsulfonylaminopyridin-4-yl)propoxy]pyridine]: the IC50 in data set [1] amounted to 150 nM. `c1ccc(Sc2ncccc2OCCCc2ccncc2)cc1` [Example 15] yielded a melting point of 41 to 43 °C. Also, in data set [1], the IC50 came out at 9.7 nM. On to `CCOC(=O)c1cccc(Oc2ncccc2OCCCc2ccncc2O)c1.CCOC(=O)c1cccc(Oc2ncccc2OCCCc2ccncc2O)c1.O=C(O)/C=C/C(=O)O` [Example 29, 2-(3-ethoxycarbonylphenoxy)-3-[3-(3-hydroxypyridin-4-yl)propoxy]pyridine.0.5 fumarate], for which the “Inhibitory Rate” value in data set [2] (10 mg/kg orally, one hour prior to antigen (ovalbumin i.v.)) was determined as 42%.

With `Brc1cccc(Oc2ncccc2OCCCc2ccncc2)c1` [Example 35, 2-(3-bromophenoxy)-3-[3-(pyridin-4-yl)propoxy]pyridine], the IC50 in data set [1] turned out to be 25.8 nM. In addition, the inhibition in vivo at 10 mg/kg in data set [2] (setting [3]) was 49.3%.

Take `Oc1cncc(Cl)c1CCCOc1cccnc1Oc1cccc(Cl)c1` [Example 73, 2-(3-chlorophenoxy)-3-[3-(3-chloro-5-hydroxypyridin-4-yl)propoxy]pyridine]: the IC50 in data set [1] was 200 nM. Regarding `Oc1cnccc1CCCOc1cccnc1Nc1cccc(Br)c1` [Example 46, 2-(3-bromoanilino)-3-[3-(3-hydroxypyridin-4-yl)propoxy]-pyridine], the inhibition in vivo at 10 mg/kg in data set [2] (setting [3]) was found to be 45.7%. In turn, `Brc1cccc(Oc2ncccc2OCCCc2cccnc2)c1` [Example 40] had a melting point of 46 to 48 °C. In addition, the IC50 in data set [1] amounted to 18.3 nM. Further, the inhibition in vivo at 10 mg/kg in data set [2] (setting [3]) turned out to be 45.3%. The compound `c1ccc(Oc2ncccc2OCCCc2ccncc2)cc1` [Example 37, 2-phenoxy-3-[3-(pyridin-4-yl)propoxy]pyridine] registered a melting point of 97 to 98 °C. Moreover, the IC50 in data set [1] turned out to be 26.8 nM. Further, the inhibition in vivo at 10 mg/kg in data set [2] (setting [3]) was found to be 49.6%. Turning to `COc1ccc(C(=O)Nc2c(Cl)cncc2Cl)cc1OC1CCCC1` [RP-73401, reference compound], in data set [1], the IC50 is 0.18 nM.

Turning to `COc1ccc(C2CNC(=O)C2)cc1OC1CCCC1` (stereo not shown) [Rolipram, reference compound], in data set [1], the IC50 was determined as 28.4 nM. As for `Oc1cnccc1CCCOc1cccnc1Oc1cccc(Cl)c1` [Example 31, 2-(3-chlorophenoxy)-3-[3-(3-hydroxypyridin-4-yl)-propoxy]pyridine], in data set [1], the IC50 is 15.7 nM. Moreover, in data set [2] (setting [4]), the inhibition in vivo at 3 mg/kg is 39% and the inhibition in vivo at 30 mg/kg was 69%. Further, the inhibition in vivo at 10 mg/kg in data set [2] (10 mg/kg orally, 2 hours prior to antigen (ovalbumin i.v.)) came out at 66%. Also, the “toxicity in acute toxicity test” value in “acute toxicity test” was “never showed any toxicity”.

In turn, `N#Cc1cccc(Oc2ncccc2OCCCc2ccncc2)c1` [Example 41, 2-(3-Cyanophenoxy)-3-[3-(pyridin-4-yl)propoxy]pyridine] gave a melting point of 112 to 113 °C. For the same compound, in data set [1], the IC50 came out at 38.6 nM.

For `CC(=O)Oc1cnccc1CCCOc1cccnc1Oc1ccccc1` [Example 56, 2-phenoxy-3-[3-(3-acetoxypyridin-4-yl)propoxy]pyridine], the IC50 in data set [1] came out at 5.6 nM. As for `N#Cc1cccc(Oc2ncccc2OCCCc2ccncc2O)c1` [Example 28, 2-(3-cyanophenoxy)-3-[3-(3-hydroxypyridin-4-yl)-propoxy]pyridine], the inhibition in vivo at 10 mg/kg in data set [2] (setting [3]) was 54%. The same measure, in the same setting: under `Oc1cnccc1CCCOc1cccnc1Sc1cccc(Br)c1` [Example 26, 2-(3-bromophenylthio)-3-[3-(3-hydroxypyridin-4-yl)-propoxy]pyridine] stands 48.3%. On to `COc1ccc([C@]2(C#N)CC[C@@H](C(=O)O)CC2)cc1OC1CCCC1` [SB-207499, reference compound], for which the IC50 in data set [1] is 11 nM. In the case of `Oc1cnccc1CCCOc1cccnc1Oc1cccc(F)c1` [Example 44, 2-(3-fluorophenoxy)-3-[3-(3-hydroxypyridin-4-yl)-propoxy]pyridine], the IC50 in data set [1] was determined as 34.6 nM. Moreover, the inhibition in vivo at 10 mg/kg in data set [2] (setting [3]) is 55%. Consider `Oc1cccc(Sc2ncccc2OCCCc2ccncc2)c1` [Example 13, 2-(3-hydroxyphenylthio)-3-[3-(pyridin-4-yl)propoxy]pyridine], for which the melting point is 158 to 159 °C.

`COc1cccc(Sc2ncccc2OCCCc2ccncc2)c1` [Example 14] returned a melting point of 84 to 85 °C. The IC50 in data set [1] worked out at 15.3 nM. Take `Oc1cnccc1CCCOc1cccnc1Oc1cccc(Br)c1` [Example 32, 2-(3-bromophenoxy)-3-[3-(3-hydroxypyridin-4-yl)-propoxy]pyridine]: the IC50 in data set [1] stood at 14.2 nM. For the same compound, in data set [2] (setting [5]), the inhibition in vivo at 3 mg/kg was determined as 34% and the inhibition in vivo at 30 mg/kg was 72%. Also, the inhibition in vivo at 10 mg/kg in data set [2] (setting [3]) stood at 70%. As to `CC(=O)Oc1cnccc1CCCOc1cccnc1Cc1cccc(Br)c1` [Example 57, 2-(3-bromobenzyl)-3-[3-(3-acetoxypyridin-4-yl)propoxy]-pyridine.1.5 fumarate], the IC50 in data set [1] came out at 22.9 nM. On the same count and under the same terms, under `COC(=O)c1cccc(Oc2ncccc2OCCCc2ccncc2)c1` [Example 53, 2-(3-methoxycarbonylphenoxy)-3-[3-(pyridin-4-yl)-propoxy]pyridine] stands 23.4 nM.

These data come from patent US6683186B2, “2,3-Disubstituted pyridine derivative, process for the preparation thereof, pharmaceutical composition containing the same, and intermediate therefor” (Dainippon Pharmaceutical Company, Limited, priority 1998, dated 2004).
